Test results from patent publication US11208421B2, “2-carboxypenam compound or salt thereof, pharmaceutical composition containing novel 2-carboxypenam compound or salt thereof, and applications thereof” (priority 2017, dated 2021).
In brackets after ≈: the same amount, converted by molar mass.

Experiments:
Assay type in all cases: cell-based
[1] = system: Pseudomonas aeruginosa strain ATCC 27853; assay: Antibacterial activity evaluation test (MIC), broth microdilution, strain ATCC 27853; conditions: for MIC Pseudomonas aeruginosa strain ATCC 27853: cation-adjusted Mueller-Hinton medium supplemented with 20 M of apotransferrin, 35° C., 16 to 20 hours; for MIC: Pseudomonas aeruginosa, ATCC27853, read-out: MIC Pseudomonas aeruginosa strain ATCC 27853
Method: (§1) The minimum inhibitory concentration (MIC) was measured according to the Clinical and Laboratory Standards Institute (CLSI) standard method by using the following broth microdilution method.
(§2) As bacteria, a Pseudomonas aeruginosa strain ATCC 27853, a Pseudomonas aeruginosa AmpC derepression mutant strain S-3028, and a Pseudomonas aeruginosa IMP-1-producing strain S-2838 were used.
(§3) The Pseudomonas aeruginosa AmpC-derepression mutant strain S-3028 or the Pseudomonas aeruginosa IMP-1-producing strain S-2838 was cultured on a Mueller Hinton agar medium overnight, thereby preparing test bacterial cells. The obtained test bacterial cells were scraped off, suspended to yield 0.5 McFarland equivalence, and diluted 10-fold to obtain an inoculum. A cation-adjusted Mueller Hinton medium containing a test compound was inoculated with 0.0005 mL of the inoculum, and the cells were cultured at 35° C. for 16 to 20 hours. The minimum drug concentration at which the growth of bacteria was not visually observed was defined as MIC.
The MIC of the Pseudomonas aeruginosa ATCC strain 27853 was measured in the same manner as described above by using a cation-adjusted Mueller-Hinton medium supplemented with […] of apotransferrin as a final concentration.

[2] = system: Pseudomonas aeruginosa AmpC derepression mutant strain S-3028; assay: Antibacterial activity evaluation test (MIC), broth microdilution, AmpC derepression mutant strain S-3028; conditions: for MIC Pseudomonas aeruginosa strain S-3028: AmpC derepression mutant, cation-adjusted Mueller Hinton medium, 35° C., 16 to 20 hours; for MIC: Pseudomonas aeruginosa, read-out: MIC Pseudomonas aeruginosa strain S-3028
Method: as §1, §2, §3

[3] = system: Pseudomonas aeruginosa IMP-1-producing strain S-2838; assay: Antibacterial activity evaluation test (MIC), broth microdilution, IMP-1-producing strain S-2838; conditions: for MIC Pseudomonas aeruginosa strain S-2838: IMP-1-producing strain, cation-adjusted Mueller Hinton medium, 35° C., 16 to 20 hours; for MIC: Pseudomonas aeruginosa, read-out: MIC Pseudomonas aeruginosa strain S-2838
Method: as §1, §2, §3

CC(C)(O/N=C(\C(=O)N[C@@H]1C(=O)N2C[C@](SCCNC(=O)C(=O)c3ccc(O)c(O)c3Cl)(C(=O)O)S[C@H]12)c1csc(N)n1)C(=O)O [Example 1, (3R,5R,6R)-6-((Z)-2-(2-aminothiazol-4-yl)-2-(((2-carboxypropan-2-yl)oxy)imino)acetamide)-3-((2-(2-(2-chloro-3,4-dihydroxyphenyl)-2-oxoacetamide)ethyl)thio)-7-oxo-4-thia-1-azabicyclo[3.2.0]heptane-3-carboxylic acid]
MIC Pseudomonas aeruginosa strain ATCC 27853 [1]: 0.125 µg/mL (≈ 0.174 µM) | MIC Pseudomonas aeruginosa strain S-3028 [2]: 128 µg/mL (≈ 178 µM) | MIC Pseudomonas aeruginosa strain S-2838 [3]: 2 µg/mL (≈ 2.79 µM)

CC(C)(O/N=C(\C(=O)N[C@@H]1C(=O)N2C[C@](SC3CN(C(=O)C(=O)c4ccc(O)c(O)c4Cl)C3)(C(=O)O)S[C@H]12)c1csc(N)n1)C(=O)O [Example 2, (3R,5R,6R)-6-((Z)-2-(2-aminothiazol-4-yl)-2-(((2-carboxypropan-2-yl)oxy)imino)acetamide)-3-((1-(2-(2-chloro-3,4-dihydroxyphenyl)-2-oxoacetyl)azetidin-3-yl)thio)-7-oxo-4-thia-1-azabicyclo[3.2.0]heptane-3-carboxylic acid]
MIC Pseudomonas aeruginosa strain ATCC 27853 [1]: ≤0.0625 µg/mL | MIC Pseudomonas aeruginosa strain S-3028 [2]: 4 µg/mL (≈ 5.49 µM) | MIC Pseudomonas aeruginosa strain S-2838 [3]: 16 µg/mL (≈ 21.9 µM)

COC[C@H](CS[C@]1(C(=O)O)CN2C(=O)[C@@H](NC(=O)/C(=N\OC(C)(C)C(=O)O)c3csc(N)n3)[C@H]2S1)NC(=O)C(=O)c1ccc(O)c(O)c1Cl [Example 3, (3R,5R,6R)-6-((Z)-2-(2-aminothiazol-4-yl)-2-(((2-carboxypropan-2-yl)oxy)imino)acetamide)-3-(((R)-2-(2-(2-chloro-3,4-dihydroxyphenyl)-2-oxoacetamide)-3-methoxypropyl)thio)-7-oxo-4-thia-1-azabicyclo[3.2.0]heptane-3-carboxylic acid]
MIC Pseudomonas aeruginosa strain ATCC 27853 [1]: ≤0.0625 µg/mL | MIC Pseudomonas aeruginosa strain S-3028 [2]: 0.5 µg/mL (≈ 0.657 µM) | MIC Pseudomonas aeruginosa strain S-2838 [3]: 1 µg/mL (≈ 1.31 µM)

CC(C)(O/N=C(\C(=O)N[C@@H]1C(=O)N2C[C@](SCCNC(=O)/C(=N\O)c3ccc(O)c(O)c3Cl)(C(=O)O)S[C@H]12)c1csc(N)n1)C(=O)O [Example 4, (3R,5R,6R)-6-((Z)-2-(2-aminothiazol-4-yl)-2-(((2-carboxypropan-2-yl)oxy)imino)acetamide)-3-((2-((Z)-2-(2-chloro-3,4-dihydroxyphenyl)-2-(hydroxyimino)acetamide)ethyl)thio)-7-oxo-4-thia-1-azabicyclo[3.2.0]heptane-3-carboxylic acid]
MIC Pseudomonas aeruginosa strain ATCC 27853 [1]: ≤0.0625 µg/mL | MIC Pseudomonas aeruginosa strain S-3028 [2]: 8 µg/mL (≈ 10.9 µM) | MIC Pseudomonas aeruginosa strain S-2838 [3]: 32 µg/mL (≈ 43.7 µM)

CC(C)(O/N=C(\C(=O)N[C@@H]1C(=O)N2C[C@](SC3CN(C(=O)/C(=N\O)c4ccc(O)c(O)c4Cl)C3)(C(=O)O)SC12)c1csc(N)n1)C(=O)O (stereo partly drawn) [Example 5, (3R,5R,6R)-6-((Z)-2-(2-aminothiazol-4-yl)-2-(((2-carboxypropan-2-yl)oxy)imino)acetamide)-3-((1-((Z)-2-(2-chloro-3,4-dihydroxyphenyl)-2-(hydroxyimino)acetyl)azetidin-3-yl)thio)-7-oxo-4-thia-1-azabicyclo[3.2.0]heptane-3-carboxylic acid]
MIC [1]: ≤ 0.0625 µg/mL | MIC [2]: 8 µg/mL (≈ 10.8 µM) | MIC [3]: 16 µg/mL (≈ 21.5 µM)

CO[C@@H](CNC(=O)C(=O)c1ccc(O)c(O)c1Cl)CS[C@]1(C(=O)O)CN2C(=O)[C@@H](NC(=O)/C(=N\OC(C)(C)C(=O)O)c3csc(N)n3)C2S1 (stereo partly drawn) [Example 6, (3R,5R,6R)-6-((Z)-2-(2-aminothiazol-4-yl)-2-(((2-carboxypropane-2-yl)oxy)imino)acetamide)-3-(((S)-3-(2-(2-chloro-3,4-dihydroxyphenyl)-2-oxoacetamide)-2-methoxypropyl)thio)-7-oxo-4-thia-1-azabicyclo[3.2.0]heptane-3-carboxylic acid]
MIC [1]: 0.25 µg/mL (≈ 0.328 µM) | MIC [2]: 4 µg/mL (≈ 5.25 µM) | MIC [3]: 2 µg/mL (≈ 2.63 µM)

CC(C)(O/N=C(\C(=O)N[C@@H]1C(=O)N2C[C@](SCCNC(=O)C(=O)c3ccc(O)c(O)c3)(C(=O)O)S[C@H]12)c1csc(N)n1)C(=O)O [Example 7, (3R,5R,6R)-6-((Z)-2-(2-aminothiazol-4-yl)-2-(((2-carboxypropane-2-yl)oxy)imino)acetamide)-3-((2-(2-(3,4-dihydroxyphenyl)-2-oxoacetamide)ethyl)thio)-7-oxo-4-thia-1-azabicyclo[3.2.0]heptane-3-carboxylic acid]
MIC Pseudomonas aeruginosa strain ATCC 27853 [1]: 0.125 µg/mL (≈ 0.183 µM) | MIC Pseudomonas aeruginosa strain S-3028 [2]: 16 µg/mL (≈ 23.4 µM) | MIC Pseudomonas aeruginosa strain S-2838 [3]: 4 µg/mL (≈ 5.86 µM)

CN/N=C(\C(=O)NCCS[C@]1(C(=O)O)CN2C(=O)[C@@H](NC(=O)/C(=N\OC(C)(C)C(=O)O)c3csc(N)n3)[C@H]2S1)c1ccc(O)c(O)c1Cl [Example 8, (3R,5R,6R)-6-((Z)-2-(2-aminothiazol-4-yl)-2-(((2-carboxypropan-2-yl)oxy)imino)acetamide)-3-((2-((Z)-2-(2-chloro-3,4-dihydroxyphenyl)-2-(2-methylhydrazono)acetamide)ethyl)thio)-7-oxo-4-thia-1-azabicyclo[3.2.0]heptane-3-carboxylic acid]
MIC [1]: ≤ 0.0625 µg/mL | MIC [2]: 2 µg/mL (≈ 2.68 µM) | MIC [3]: 0.25 µg/mL (≈ 0.335 µM)

CC(C)(O/N=C(\C(=O)N[C@@H]1C(=O)N2C[C@](SCCNC(=O)/C(=N/N3CCOCC3)c3ccc(O)c(O)c3Cl)(C(=O)O)S[C@H]12)c1csc(N)n1)C(=O)O [Example 10, (3R,5R,6R)-6-((Z)-2-(2-aminothiazole-4-yl)-2-(((2-carboxypropan-2-yl)oxy)imino)acetamide)-3-((2-((E)-2-(2-chloro-3,4-dihydroxyphenyl)-2-(morpholinoimino)acetamide)ethyl)thio)-7-oxo-4-thia-1-azabicyclo[3.2.0]heptane-3-carboxylic acid]
MIC [1]: 1 µg/mL (≈ 1.25 µM) | MIC [2]: > 128 µg/mL | MIC [3]: 32 µg/mL (≈ 39.9 µM)

CC(C)(O/N=C(\C(=O)N[C@@H]1C(=O)N2C[C@](SC3CN(C(=O)C(=NNC(N)=O)c4ccc(O)c(O)c4Cl)C3)(C(=O)O)S[C@H]12)c1csc(N)n1)C(=O)O [Example 11, (3R,5R,6R)-6-((Z)-2-(2-aminothiazol-4-yl)-2-(((2-carboxypropan-2-yl)oxy)imino)acetamide)-3-((1-((Z)-2-(2-carbamoylhydrazono)-2-(2-chloro-3,4-dihydroxyphenyl)acetyl)azetidin-3-yl)thio)-7-oxo-4-thia-1-azabicyclo[3.2.0]heptane-3-carboxylic acid]
MIC [1]: ≤ 0.0625 µg/mL | MIC [2]: 1 µg/mL (≈ 1.27 µM) | MIC [3]: 2 µg/mL (≈ 2.54 µM)

CC(C)(O/N=C(\C(=O)N[C@@H]1C(=O)N2C[C@](SCCNC(=O)/C(=N\NC(N)=O)c3ccc(O)c(O)c3Cl)(C(=O)O)S[C@H]12)c1csc(N)n1)C(=O)O [Example 12]
MIC [1]: ≤ 0.0625 µg/mL | MIC [2]: 16 µg/mL (≈ 20.7 µM) | MIC [3]: 4 µg/mL (≈ 5.17 µM)

CC(C)(O/N=C(\C(=O)N[C@@H]1C(=O)N2C[C@](SCCNC(=O)/C(=N/NC(N)=O)c3ccc(O)c(O)c3Cl)(C(=O)O)S[C@H]12)c1csc(N)n1)C(=O)O [Example 13, (3R,5R,6R)-6-((Z)-2-(2-aminothiazole-4-yl)-2-(((2-carboxypropan-2-yl)oxy)imino)acetamide)-3-((2-((E)-2-(2-carbamoylhydrazono)-2-(2-chloro-3,4-dihydroxyphenyl)acetamide)ethyl)thio)-7-oxo-4-thia-1-azabicyclo[3.2.0]heptane-3-carboxylic acid]
MIC [1]: ≤ 0.0625 µg/mL | MIC [2]: 16 µg/mL (≈ 20.7 µM) | MIC [3]: 8 µg/mL (≈ 10.3 µM)
